Measured values reported in ChEMBL document CHEMBL1150434, “Semisynthetic modification of hygromycin A. 1. Synthesis and antibacterial activity of vinyl methyl and amide analogs” (1992).
In brackets after ≈: the same amount, converted by molar mass. Activity calls are given as the source filed them. The calls are words filed in the database; no cut-off is given here.

What was measured:
[1] = system: Brachyspira hyodysenteriae; assay: Tested for antibacterial activity against Serpulina hyodysenteriae at a concentration of up to 200 ug/mL; IA= Inactive; assay type: functional, organism-based
[2] = system: Brachyspira hyodysenteriae; assay: Antibacterial activity against Serpulina hyodysenteriae; assay type: functional

| Structure (SMILES) | Activity [1] | MIC [2] [µg/mL] |
| --- | --- | --- |
| C/C(=C\c1ccc(O[C@@H]2O[C@H]([C@H](C)O)[C@@H](O)[C@@H]2O)c(O)c1)C(=O)NC1CCCCC1 | inactive | – |
| C/C(=C\c1ccc(O[C@@H]2O[C@H]([C@H](C)O)[C@@H](O)[C@@H]2O)c(O)c1)C(=O)N[C@@H]1C(O)O[C@H](CO)[C@@H](O)[C@@H]1O (some centres not stated) | inactive | – |
| C/C(=C\c1ccc(O[C@@H]2O[C@H]([C@H](C)O)[C@@H](O)[C@@H]2O)c(O)c1)C(=O)NC(CO)CO | inactive | – |
| C[C@@H](O)[C@H]1O[C@@H](Oc2ccc(/C=C(\Cl)C(=O)N[C@@H]3[C@H](O)[C@@H](O)[C@H]4OCO[C@H]4[C@@H]3O)cc2O)[C@@H](O)[C@@H]1O | – | 6.25 (≈ 11.7 µM) |
| C/C(=C\c1ccc(O[C@@H]2O[C@H]([C@H](C)O)[C@@H](O)[C@@H]2O)c(O)c1)C(=O)N1CCOCC1 | inactive | – |
| C[C@@H](O)[C@H]1O[C@@H](Oc2ccc(/C=C(\Br)C(=O)N[C@@H]3[C@H](O)[C@@H](O)[C@H]4OCO[C@H]4[C@@H]3O)cc2O)[C@@H](O)[C@@H]1O | – | 3.13 (≈ 5.41 µM) |
| CC(=O)[C@H]1O[C@@H](Oc2ccc(C=C(C)C(=O)N[C@@H]3[C@H](O)[C@@H](O)[C@H]4OCO[C@H]4[C@@H]3O)cc2O)[C@@H](O)[C@@H]1O [HYGROMYCIN A] | – | 0.78 (≈ 1.52 µM) |
| C/C(=C\c1ccc(O[C@@H]2O[C@H]([C@H](C)O)[C@@H](O)[C@@H]2O)c(O)c1)C(=O)N[C@@H]1CCCC[C@@H]1O | inactive | – |
| CC/C(=C\c1ccc(O[C@@H]2O[C@H]([C@@H](C)O)[C@@H](O)[C@@H]2O)c(O)c1)C(=O)N[C@@H]1[C@H](O)[C@@H](O)[C@H]2OCO[C@H]2[C@@H]1O | – | 3.13 (≈ 5.93 µM) |
| C/C(=C\c1ccc(O[C@@H]2O[C@H]([C@H](C)O)[C@@H](O)[C@@H]2O)c(O)c1)C(=O)N[C@H]1CC[C@H](O)CC1 | inactive | – |
| C/C(=C\c1ccc(O[C@@H]2O[C@H]([C@H](C)O)[C@@H](O)[C@@H]2O)c(O)c1)C(=O)N1CCN(C)CC1 | inactive | – |
| C[C@@H](O)[C@H]1O[C@@H](Oc2ccc(/C=C/C(=O)N[C@@H]3[C@H](O)[C@@H](O)[C@H]4OCO[C@H]4[C@@H]3O)cc2O)[C@@H](O)[C@@H]1O | – | 100 (≈ 200 µM) |
| C/C(=C\c1ccc(O[C@@H]2O[C@H]([C@H](C)O)[C@@H](O)[C@@H]2O)c(O)c1)C(=O)N1CCC[C@H]1CO | inactive | – |
| C/C(=C\c1ccc(O[C@@H]2O[C@H]([C@H](C)O)[C@@H](O)[C@@H]2O)c(O)c1)C(=O)N[C@H]1C(O)O[C@H](CO)[C@@H](O)[C@@H]1O (some centres not stated) | inactive | – |
| C/C(=C\c1ccc(O[C@@H]2O[C@H]([C@H](C)O)[C@@H](O)[C@@H]2O)c(O)c1)C(=O)N1CCCCC1CO (some centres not stated) | inactive | – |
| C/C(=C\c1ccc(O[C@@H]2O[C@H]([C@H](C)O)[C@@H](O)[C@@H]2O)c(O)c1)C(=O)N1CCNCC1 | inactive | – |
| C=CC/C(=C\c1ccc(O[C@@H]2O[C@H]([C@@H](C)O)[C@@H](O)[C@@H]2O)c(O)c1)C(=O)N[C@@H]1[C@H](O)[C@@H](O)[C@H]2OCO[C@H]2[C@@H]1O | – | > 200 |
| C/C(=C\c1ccc(O[C@@H]2O[C@H]([C@H](C)O)[C@@H](O)[C@@H]2O)c(O)c1)C(=O)N[C@@H]1CCC[C@H]1O | inactive | – |
| CCC/C(=C\c1ccc(O[C@@H]2O[C@H]([C@@H](C)O)[C@@H](O)[C@@H]2O)c(O)c1)C(=O)N[C@@H]1[C@H](O)[C@@H](O)[C@H]2OCO[C@H]2[C@@H]1O | – | > 200 |
| C/C(=C\c1ccc(O[C@@H]2O[C@H]([C@H](C)O)[C@@H](O)[C@@H]2O)c(O)c1)C(=O)NCCO | inactive | – |
| C/C(=C\c1ccc(O[C@@H]2O[C@H]([C@@H](C)O)[C@@H](O)[C@@H]2O)c(O)c1)C(=O)N[C@@H]1[C@H](O)[C@@H](O)[C@H]2OCO[C@H]2[C@@H]1O | – | 3.13 (≈ 6.1 µM) |
| C/C(=C\c1ccc(O[C@@H]2O[C@H]([C@H](C)O)[C@@H](O)[C@@H]2O)c(O)c1)C(=O)N1CCN(C(=O)N2CCNCC2)CC1 | inactive | – |
| C/C(=C\c1ccc(O[C@@H]2O[C@H]([C@H](C)O)[C@@H](O)[C@@H]2O)c(O)c1)C(=O)N[C@@H]1CCC[C@@H]1O | inactive | – |
| C#CC/C(=C\c1ccc(O[C@@H]2O[C@H]([C@@H](C)O)[C@@H](O)[C@@H]2O)c(O)c1)C(=O)N[C@@H]1[C@H](O)[C@@H](O)[C@H]2OCO[C@H]2[C@@H]1O | – | 100 (≈ 186 µM) |
| C/C(=C\c1ccc(O[C@@H]2O[C@H]([C@H](C)O)[C@@H](O)[C@@H]2O)c(O)c1)C(=O)N[C@@H]1CCCC[C@H]1O | inactive | – |
| C/C(=C\c1ccc(O[C@@H]2O[C@H]([C@H](C)O)[C@@H](O)[C@@H]2O)c(O)c1)C(=O)NC1(CO)CCCC1 | inactive | – |
| C/C(=C\c1ccc(O[C@@H]2O[C@H]([C@H](C)O)[C@@H](O)[C@@H]2O)c(O)c1)C(=O)N1CCC[C@H]1C(=O)O | inactive | – |
